Measured values as given in patent publication US5521160A, “Sulfuric acid esters of sugar alcohols” (Hoffmann-La Roche Inc., priority 1994, dated 1996).
Counter-ions that a name gives are not always drawn. Like-named read-outs stand apart in the source and are kept apart here.

Tests used:
rat smooth muscle cells = assay: Antiproliferative activity (growth inhibition of rat smooth muscle cells, relative to heparin); type: cell-based; conditions: 100 μg/ml, 48 hours, relative to heparin 100 μg/ml in same experiment
Protocol: The antiproliferative activity of a substance is expressed as the ri value which is a comparative value to the corresponding activity of heparin and which was determined in cell cultures as follows: rat smooth muscle cells were applied to cell culture plates in a density of 8×10^3 cells/well (medium: DMEM with 10% FCS. Cultivation at 37° C. and 5% CO2). After 4 hours the number of adhered cells was determined and the compounds to be tested (100 μg/ml, dissolved in H2 O) were added. The controls were a) cells to which test compound was not added and b) heparin (100 μg/ml). Subsequently, the cells were incubated for 48 hours and thereafter the cell count was determined once more.
The inhibition i of the cell growth, i.e. the percent reduction in the growth rate of the cells compared to the control, was calculated from these values: [formula] the growth rate μ being calculated as [formula] in which Z is the number of cells.
Finally, ri --the relative inhibitory activity--which expresses the activity of a substance (at 100 μg/ml) in comparison to the activity of heparin in the same concentration in the same experiment, was calculated: [formula]

thrombin = target: T1, thrombin (Homo sapiens, UniProt P00734); assay: biochemical; type: biochemical
T1 construct: purchased Roche, Basle (Thrombin Reagent)
Protocol: (§1) The blood coagulation-inhibiting activity was determined as follows:
Inhibition of Thrombin or Factor Xa in the Chromogenic Substrate Assay (Teien. et al., Thrombosis Research 10, 399-410 (1977)): The determination was effected in a Cobas-Bio centrifugal automatic spectrophotometer. The buffer solution used consisted of 50 mM Tris buffer, 180 mM NaCl, 7.5 mM EDTA Na2, 1% PEG 6000 and 0.02% Tween 80, pH 8.4. The test solution consisted of 50 μl of buffer, 30 μl of antithrombin III (1 U/ml, Kabi Diagnostica) and 20 μl of plasma which contained various concentrations of test compounds. 30 μl of sample solution and 20 μl of water with 180 μl of thrombin (1 U/ml, Thrombin Reagent Roche Basle) were added to the test cuvette in the automatic analyzer. After incubation at 37° C. for 240 seconds, 60 μl of S-2238 (H-D-Phe-Pip-Arg-NH.pNA, Kabi Diagnostica, Mondal, Sweden, 0.75 mM in water) and 20 μl of water were added. The liberation of pNA (p-nitroaniline) was followed during 60 seconds at 405 nm in 10 second intervals in comparison to water as the blank.

Factor Xa = target: T2, Factor Xa (Bos taurus, UniProt P00743); assay: Inhibition of Factor Xa in the chromogenic substrate assay (blood coagulation inhibition); type: biochemical
T2 sequence (P00743 41-180 limits assumed): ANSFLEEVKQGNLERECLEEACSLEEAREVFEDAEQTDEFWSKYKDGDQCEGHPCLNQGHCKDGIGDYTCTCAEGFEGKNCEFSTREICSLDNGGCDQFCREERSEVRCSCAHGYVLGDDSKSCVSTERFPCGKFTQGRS
Protocol: as §1
Inhibition of Thrombin or Factor Xa in the Chromogenic Substrate Assay (Teien. et al., Thrombosis Research 10, 399-410 (1977)): The determination was effected in a Cobas-Bio centrifugal automatic spectrophotometer. The buffer solution used consisted of 50 mM Tris buffer, 180 mM NaCl, 7.5 mM EDTA Na2, 1% PEG 6000 and 0.02% Tween 80, pH 8.4. The test solution consisted of 50 μl of buffer, 30 μl of antithrombin III (1 U/ml, Kabi Diagnostica) and 20 μl of plasma which contained various concentrations of test compounds.
The inhibition of Factor Xa was measured in the same manner using a solution of Factor Xa (2.8 nkat/ml) and 2 mM S-2222 (Bz-CO-Ile-Glu-Arg-NH.pNA, Kabi Diagnostica) in water in place of thrombin or S-2238.

[1] = read-out: Anticoagulative Activity IC50 Thrombin; chromogenic substrate S-2238, antithrombin III, plasma, pH 8.4, 37° C.
[2] = read-out: Anticoagulative Activity IC50 Factor Xa; chromogenic substrate S-2222, antithrombin III, plasma
[3] = chromogenic substrate S-2238, antithrombin III, plasma, pH 8.4, 37° C.; read-out: Anticoagulative Activity IC50 Thrombin
[4] = chromogenic substrate S-2222, antithrombin III, plasma; read-out: Anticoagulative Activity IC50 Factor Xa

| IC50 (thrombin; [3]) [µM] | IC50 (Factor Xa; [4]) [µM] | Anticoagulative Activity IC50 Thrombin (thrombin; chromogenic substrate S-2238, antithrombin III, plasma, pH 8.4, 37° C.) [µg/mL] | Anticoagulative Activity IC50 Factor Xa (Factor Xa; chromogenic substrate S-2222, antithrombin III, plasma) [µg/mL] | Molecule | Antiproliferative Activity ri (relative inhibitory activity compared with heparin) (rat smooth muscle cells) | IC50 (thrombin; [1]) [µM] | IC50 (Factor Xa; [2]) [µM] |
| --- | --- | --- | --- | --- | --- | --- | --- |
| – | – | – | – | O=[N+]([O-])c1cc(S(=O)(=O)c2ccc(NC[C@H](OS(=O)(=O)O)[C@@H](OS(=O)(=O)O)[C@H](OS(=O)(=O)O)[C@@H](COS(=O)(=O)O)OS(=O)(=O)O)c([N+](=O)[O-])c2)ccc1NC[C@H](OS(=O)(=O)O)[C@@H](OS(=O)(=O)O)[C@H](OS(=O)(=O)O)[C@@H](COS(=O)(=O)O)OS(=O)(=O)O [Example 67, N,N'-bis-(2,3,4,5,6-penta-O-sulfo-D-glucit-1-yl)-2,2'-dinitro-4,4'-sulfonyldianiline decasodium salt] | 1.0 | > 682 | > 682 |
| – | – | – | – | O=C(Nc1ccc(Cc2ccc(NC(=O)c3ccc(NC[C@H](OS(=O)(=O)O)[C@@H](OS(=O)(=O)O)[C@H](OS(=O)(=O)O)[C@@H](COS(=O)(=O)O)OS(=O)(=O)O)c([N+](=O)[O-])c3)cc2)cc1)c1ccc(NC[C@H](OS(=O)(=O)O)[C@@H](OS(=O)(=O)O)[C@H](OS(=O)(=O)O)[C@@H](COS(=O)(=O)O)OS(=O)(=O)O)c([N+](=O)[O-])c1 [Example 68, 4,4'-bis-(2,3,4,5,6-penta-O-sulfo-D-glucit-1-ylamino)-3,3'-dinitro-N,N'-(4,4'-methylene-diphenyl)-dibenzamide decasodium salt] | 1.1 | > 604 | > 604 |
| > 699 | > 699 | – | – | O=C(NC[C@H](OS(=O)(=O)O)[C@@H](OS(=O)(=O)O)[C@H](OS(=O)(=O)O)[C@@H](COS(=O)(=O)O)OS(=O)(=O)O)c1ccc(/C=C/c2ccc(C(=O)NC[C@H](OS(=O)(=O)O)[C@@H](OS(=O)(=O)O)[C@H](OS(=O)(=O)O)[C@@H](COS(=O)(=O)O)OS(=O)(=O)O)cc2Cl)cc1 [Example 85, (E)-2-chlorostilbene-4,4'-dicarboxylic acid bis-(2,3,4,5,6-penta-O-sulfo-D-glucit-1-ylamide) decasodium salt] | 2.1 | – | – |
| > 831 | > 831 | – | – | C[C@H](OS(=O)(=O)O)[C@H](OS(=O)(=O)O)[C@@H](OS(=O)(=O)O)[C@H](CNC(=O)c1ccc(/C=C\c2ccc(C(=O)NC[C@H](OS(=O)(=O)O)[C@H](OS(=O)(=O)O)[C@@H](OS(=O)(=O)O)[C@H](C)OS(=O)(=O)O)cc2)cc1)OS(=O)(=O)O [Example 93, (Z)-stilbene-4,4'-dicarboxylic acid bis-(2,3,4,5,6-penta-O-sulfo-L-rhamnit-1-ylamide) octasodium salt] | 1.0 | – | – |
| – | – | 1.9 | 2.7 | heparin [reference compound] | 1.0 | – | – |
